Experimental data taken from patent US11912723B2, “KRAS modulators and uses thereof” (Quanta Therapeutics, Inc., priority 2022, dated 2024).

What was measured:
Assay type in all cases: binding
KRAS G12V/RAF1 = biological target: T1, KRAS G12V/RAF1 (Homo sapiens, UniProt P01116, G12V); test: Protein-protein interaction (PPI) HTRF assay KRAS G12V/RAF1; conditions: KRASG12V/RAF1
T1 construct: KRAS (1-169) proteins were expressed in E. coli at 18° C; His6-MBP (N, cleaved yes); made in house; host or cells: E. coli
Protocol: (§1) Biotinylated KRAS wt and KRAS G12DNV proteins were expressed and purified in conditions similar to those previously reported (Tran, et al., 2021) (Zhang, et al., 2020). Briefly, KRAS (1-169) proteins were expressed in E. coli at 18° C. with an upstream TEV cleavage site (ENLFYQS) followed an Avi tag sequence ([…]). KIRAS expression constructs contained both a His6 and maltose-binding protein (MBP) tags at the N-terminus for Ni-NTA column purification prior to overnight TEV cleavage and MBP column purification. The avi-tagged NRAS expression construct contained both a His6 tag and SUMO cleavage sige at the N-terminus for Ni-NTA column purification followed by His-ULP1 digestion overnight. All avi-tagged RAS proteins were dialyzed into buffer containing ATP, biotin, and BirA followed by purification over a second Ni-NTA column and then run over a size exclusion HiLoad™ 26/600 Superdex™ column in 20 mM HEPES, pH 7.5, 300 mM NaCl, 5 mM MgCl2, and 1 mM TCEP. Fractions containing the protein of interest were pooled, concentrated, and confirmed by intact mass spectrometry. To prepare ‘GTP’ loaded KRAS and NRAS, biotinylated KRAS or NRAS was nucleotide exchanged from GDP-bound protein to GppNHp-bound (Jena Biosciences, NU-401-50) protein in the presence of alkaline phosphatase and excess GppNHp as previously described and the resulting nucleotide content was confirmed by HPLC reverse phase analytical chromatography (Donohue, et al., 2019) (Tran, et al., 2021).
(§2) His-tagged RAF1 (52-131) was similarly expressed in E. coli at 18° C. overnight with an upstream TEV cleavage site. His-tagged RAF1 expression construct contained both a His6 and MBP tags at the N-terminus for Ni-NTA column purification followed by MBP-tagged TEV digestion overnight. RAF1 protein samples were further purified over a MBP column followed by a Ni-NTA column and a second MBP column. The fractions containing the protein of interest were pooled, concentrated, and further purified over a HiLoad™ 16/600 Superdex™ 75 pg size exclusion column into 20 mM HEPES, pH8.0, 200 mM NaCl, 5 mM TCEP.
(§3) When RAS proteins are in the active GTP-bound conformation, they bind the effector protein RAF1 at the N-terminus Ras-binding domain (RBD, residues 52-131) (Tran, et al., 2021). Homogenous time resolved fluorescence (HTRF) was used to monitor the interaction between wt or mutant KRAS and RAF1 or wt NRAS and RAFT. Compounds were assayed in the presence of KRAS G12D/V and RAF1 versus wt KRAS to assess activity against mutant and w.t. KRAS. Similarly, compounds were then assayed in the presence of w.t. NRAS and RAF1 to assess RAS isoform selectivity. In all assay formats, His-tagged RAF1 protein was incubated with the HTRF donor, anti-6His Tb Cryptate gold (Cisbio 61DB10RDF), and biotinylated RAS proteins were incubated with the HTRF acceptor, streptavidin-d2 (CisBio 610SADLA). The intensity of the fluorescence signal emitted is proportional to binding between the two proteins. The donor solution was prepared by mixing 16 nM His-tagged RAF1 in protein dilution buffer with 1:100 anti-6His Tb cryptate in PPI-Terbium detection buffer. 16 nM biotinylated RAS protein was diluted into protein dilution buffer (50 mM Tris-HCl pH 7.5, 150 mM NaCl, 0.1 mM MgCl2, 1 mM TCEP, 0.005% Tween20) and mixed with 1:2000 Streptavidin-d2 diluted in PPI-Terbium detection buffer (CisBio 61DB10RDF). 50× compound in DMSO was mixed with 16 nM KRAS-acceptor solution and incubated for 30 minutes at room temperature. After compound pre-incubation with KRAS, the RAF1 donor solution was added to the KRAS-acceptor solution and incubated for 1 hour at room temperature. The fluorescence signal emitted was monitored at 665 nm and 615 nm using an Envision multimode plate reader. The HTRF ratio (665/615) was calculated and normalized to 0% inhibition in the absence of compound and 100% inhibition in the presence of untagged RAF1 protein. […]

wtKRAS/RAF1 = biological target: T2, wtKRAS/RAF1 (Homo sapiens, UniProt P01116); test: Protein-protein interaction (PPI) HTRF assay w.t.KRAS/RAF1
T2 construct: KRAS (1-169) proteins were expressed in E. coli at 18° C; His6-MBP (N, cleaved yes); made in house; host or cells: E. coli
Protocol: as §1, §2, §3

wtNRAS/RAF1 = biological target: T3, wtNRAS/RAF1 (Homo sapiens, UniProt P01111); test: Protein-protein interaction (PPI) HTRF assay w.t.NRAS/RAF1
T3 construct: (1-169); His6-SUMO (N, cleaved yes); made in house; host or cells: E. coli (printed for the KRAS and RAF1 constructs; not explicitly for NRAS)
Protocol: as §1, §2, §3

KRAS G12D/RAF1 = biological target: T4, KRAS G12D/RAF1 (Homo sapiens, UniProt P01116, G12D); test: Protein-protein interaction (PPI) HTRF assay KRAS G12D/RAF1; conditions: KRAS G12D/RAF1, GppNHp-loaded KRAS; 30 minutes pre-incubation
T4 construct: KRAS (1-169) proteins were expressed in E. coli at 18° C; His6-MBP (N, cleaved yes); made in house; host or cells: E. coli
In short: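 Biotinylated GppNHp-loaded RAS (1-169) on streptavidin-d2 acceptor and His-RAF1 RBD (52-131) on anti-His Tb donor, each prepared at 16 nM in pH 7.5 Tris buffer. Compound preincubated with RAS 30 min, then RAF1 added for 1 h at room temperature. IC50 from HTRF 665/615 ratio, normalized to no compound (0%) and untagged RAF1 (100%).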

T2 sequence (P01116 1-169 isoform P01116-2): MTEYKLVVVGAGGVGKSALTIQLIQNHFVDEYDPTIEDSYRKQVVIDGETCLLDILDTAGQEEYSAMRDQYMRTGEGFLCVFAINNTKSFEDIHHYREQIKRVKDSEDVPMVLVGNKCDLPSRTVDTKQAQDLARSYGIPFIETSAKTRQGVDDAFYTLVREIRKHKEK
T1 sequence (P01116 1-169 isoform P01116-2 G12V): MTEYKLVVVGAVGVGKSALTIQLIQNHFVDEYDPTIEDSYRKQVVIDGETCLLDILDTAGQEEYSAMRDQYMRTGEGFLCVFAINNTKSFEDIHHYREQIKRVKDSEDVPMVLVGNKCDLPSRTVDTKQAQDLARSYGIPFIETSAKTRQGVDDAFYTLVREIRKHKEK
T3 sequence (P01111 1-169): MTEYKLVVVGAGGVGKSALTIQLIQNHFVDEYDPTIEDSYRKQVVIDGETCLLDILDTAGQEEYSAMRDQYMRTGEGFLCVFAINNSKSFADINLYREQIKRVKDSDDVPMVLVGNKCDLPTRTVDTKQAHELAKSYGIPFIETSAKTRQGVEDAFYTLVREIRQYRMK
T4 sequence (P01116 1-169 isoform P01116-2 G12D): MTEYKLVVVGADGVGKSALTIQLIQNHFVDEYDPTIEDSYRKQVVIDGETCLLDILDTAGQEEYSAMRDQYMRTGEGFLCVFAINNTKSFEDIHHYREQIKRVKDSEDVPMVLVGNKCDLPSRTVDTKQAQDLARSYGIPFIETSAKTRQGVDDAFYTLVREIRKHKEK

## CN(C)C(=O)c1nn2c(c1Cl)CN(c1nc(OC[C@@]34CCCN3C[C@H](F)C4)nc3c1CN(C)[C@@]1(CCc4ccccc41)C3)CCC2 [Compound 53, 3-chloro-5-[(7S)-2-[[(2R,8S)-2-fluoro-1,2,3,5,6,7-hexahydropyrrolizin-8-yl]methoxy]-6-methyl-spiro[5,8-dihydropyrido[4,3-d]pyrimidine-7,1′-indane]-4-yl]-N,N-dimethyl-4,6,7,8-tetrahydropyrazolo[1,5-a][1,4]diazepine-2-carboxamide]
KRAS G12V/RAF1
  IC50: 10 to 100 µM
wtKRAS/RAF1
  IC50: 10 to 100 µM
wtNRAS/RAF1
  IC50: > 100 µM
KRAS G12D/RAF1
  IC50: 10 to 100 µM

## CN(C)C(=O)c1nn2c(c1Cl)CN(c1nc(OC[C@@]34CCCN3C[C@H](F)C4)nc3c1CN(C)[C@@]1(CCCc4ccccc41)C3)CCC2 [Compound 64, 3-chloro-5-[(7S)-2-[[(2R,8S)-2-fluoro-1,2,3,5,6,7-hexahydropyrrolizin-8-yl]methoxy]-6-methyl-spiro[5,8-dihydropyrido[4,3-d]pyrimidine-7,1′-tetralin]-4-yl]-N,N-dimethyl-4,6,7,8-tetrahydropyrazolo[1,5-a][1,4]diazepine-2-carboxamide]
KRAS G12V/RAF1
  IC50: 10 to 100 µM
wtNRAS/RAF1
  IC50: > 100 µM
KRAS G12D/RAF1
  IC50: 10 to 100 µM

## C#Cc1c(C(=O)N(C)C)nn2c1CN(c1nc(OC[C@@]34CCCN3C[C@H](F)C4)nc3c1CN(C)[C@@]1(CCCc4ccccc41)C3)CCC2 [Compound 81, 3-ethynyl-5-[(7S)-2-[[(2R,8S)-2-fluoro-1,2,3,5,6,7-hexahydropyrrolizin-8-yl]methoxy]-6-methyl-spiro[5,8-dihydropyrido[4,3-d]pyrimidine-7,1′-tetralin]-4-yl]-N,N-dimethyl-4,6,7,8-tetrahydropyrazolo[1,5-a][1,4]diazepine-2-carboxamide]
KRAS G12V/RAF1
  IC50: 10 to 100 µM
wtKRAS/RAF1
  IC50: 10 to 100 µM
wtNRAS/RAF1
  IC50: > 100 µM
KRAS G12D/RAF1
  IC50: 10 to 100 µM

## Cc1nnc(-c2nn3c(c2Cl)CN(c2nc(OC[C@@]45CCCN4C[C@H](F)C5)nc4c2CN(C)[C@@]2(CCCc5ccccc52)C4)CCC3)n1C [Compound 90, (7S)-4-[3-chloro-2-(4,5-dimethyl-1,2,4-triazol-3-yl)-4,6,7,8-tetrahydropyrazolo[1,5-a][1,4]diazepin-5-yl]-2-[[(2R,8S)-2-fluoro-1,2,3,5,6,7-hexahydropyrrolizin-8-yl]methoxy]-6-methyl-spiro[5,8-dihydropyrido[4,3-d]pyrimidine-7,1′-tetralin]]
KRAS G12V/RAF1
  IC50: 10 to 100 µM
wtKRAS/RAF1
  IC50: > 100 µM
wtNRAS/RAF1
  IC50: > 100 µM
KRAS G12D/RAF1
  IC50: 10 to 100 µM

## CN(C)C(=O)c1nn2c(c1Cl)CN(c1nc(OC[C@@]34CCCN3C[C@H](F)C4)nc3c1CN(C)[C@@]1(CCc4cccc(O)c41)C3)CCC2 [Compound 96, 3-chloro-5-[(7S)-2-[[(2R,8S)-2-fluoro-1,2,3,5,6,7-hexahydropyrrolizin-8-yl]methoxy]-7′-hydroxy-6-methyl-spiro[5,8-dihydropyrido[4,3-d]pyrimidine-7,1′-indane]-4-yl]-N,N-dimethyl-4,6,7,8-tetrahydropyrazolo[1,5-a][1,4]diazepine-2-carboxamide]
KRAS G12V/RAF1
  IC50: 10 to 100 µM
wtKRAS/RAF1
  IC50: > 100 µM
wtNRAS/RAF1
  IC50: > 100 µM
KRAS G12D/RAF1
  IC50: 10 to 100 µM
